Laboratory results as given in ChEMBL document CHEMBL1201862, “PubChem BioAssay data set” (2004).
Activity calls are given as the source filed them.

What was measured:
[1] = inhibitors of intracellular T. cruzi replication, confirmation, NIH3T3 host cells, beta-gal luminescence (AID 2044); assay type: functional, cell-based;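 further: intracellular parasites grown in NIH/3T3 mouse fibroblasts as host cells; luminescent beta-galactosidase reporter signal from transgenic T. cruzi replicating inside host cells; inhibitors lower the luminescence signal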
[2] = biological target: T1, Exodeoxyribonuclease V (Escherichia coli (strain K12), UniProt P04993+P07648+P08394); test: E. coli RecBCD inhibitors, dose response, counter-screen for AddAB inhibitor project, absorbance, V66 E. coli, mutant T4 phage (AID 492957); assay type: functional, cell-based, Escherichia coli str. K-12 substr. MG1655
T1 sequence (P04993 whole entry): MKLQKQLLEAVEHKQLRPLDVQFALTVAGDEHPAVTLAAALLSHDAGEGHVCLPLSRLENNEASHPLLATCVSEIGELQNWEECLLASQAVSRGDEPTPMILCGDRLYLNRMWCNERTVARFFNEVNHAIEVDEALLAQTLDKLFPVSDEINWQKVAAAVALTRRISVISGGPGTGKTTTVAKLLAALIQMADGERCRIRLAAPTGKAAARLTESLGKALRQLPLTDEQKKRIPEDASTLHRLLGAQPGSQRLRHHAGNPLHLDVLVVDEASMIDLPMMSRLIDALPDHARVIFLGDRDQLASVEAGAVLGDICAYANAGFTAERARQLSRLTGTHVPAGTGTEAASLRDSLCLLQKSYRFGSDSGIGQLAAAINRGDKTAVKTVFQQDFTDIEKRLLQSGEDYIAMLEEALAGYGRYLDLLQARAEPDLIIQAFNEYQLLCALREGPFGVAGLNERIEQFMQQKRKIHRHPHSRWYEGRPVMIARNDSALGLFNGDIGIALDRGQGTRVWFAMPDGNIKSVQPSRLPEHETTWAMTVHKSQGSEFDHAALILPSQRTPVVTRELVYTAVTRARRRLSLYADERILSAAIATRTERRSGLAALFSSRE
T1 sequence (P07648 whole entry): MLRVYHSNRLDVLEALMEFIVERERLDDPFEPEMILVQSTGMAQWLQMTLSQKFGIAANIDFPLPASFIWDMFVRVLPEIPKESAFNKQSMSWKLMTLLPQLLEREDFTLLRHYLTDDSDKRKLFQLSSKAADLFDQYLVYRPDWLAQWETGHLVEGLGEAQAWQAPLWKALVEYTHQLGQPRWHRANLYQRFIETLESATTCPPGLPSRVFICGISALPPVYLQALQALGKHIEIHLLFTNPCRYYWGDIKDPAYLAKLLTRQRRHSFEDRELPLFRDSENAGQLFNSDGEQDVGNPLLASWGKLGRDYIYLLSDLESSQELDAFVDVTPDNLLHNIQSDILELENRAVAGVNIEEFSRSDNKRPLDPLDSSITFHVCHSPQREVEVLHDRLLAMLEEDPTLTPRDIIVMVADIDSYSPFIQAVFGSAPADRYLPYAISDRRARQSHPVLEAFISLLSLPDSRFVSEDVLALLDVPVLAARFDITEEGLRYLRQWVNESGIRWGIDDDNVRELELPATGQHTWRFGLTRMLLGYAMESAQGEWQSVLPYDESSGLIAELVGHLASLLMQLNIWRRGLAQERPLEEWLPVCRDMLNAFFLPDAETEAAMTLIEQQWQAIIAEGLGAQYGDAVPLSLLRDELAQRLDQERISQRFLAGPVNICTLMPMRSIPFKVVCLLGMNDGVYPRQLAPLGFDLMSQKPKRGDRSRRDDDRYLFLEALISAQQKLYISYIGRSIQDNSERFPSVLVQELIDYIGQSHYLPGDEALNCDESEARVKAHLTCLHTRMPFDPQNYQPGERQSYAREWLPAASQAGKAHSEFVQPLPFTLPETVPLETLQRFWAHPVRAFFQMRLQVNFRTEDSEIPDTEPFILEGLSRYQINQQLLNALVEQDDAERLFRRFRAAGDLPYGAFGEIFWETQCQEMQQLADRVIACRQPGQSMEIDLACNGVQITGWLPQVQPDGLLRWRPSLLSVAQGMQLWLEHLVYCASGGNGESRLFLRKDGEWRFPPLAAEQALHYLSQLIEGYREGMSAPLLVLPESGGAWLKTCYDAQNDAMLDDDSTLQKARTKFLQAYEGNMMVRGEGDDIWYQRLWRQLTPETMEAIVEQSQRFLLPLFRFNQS
T1 sequence (P08394 whole entry): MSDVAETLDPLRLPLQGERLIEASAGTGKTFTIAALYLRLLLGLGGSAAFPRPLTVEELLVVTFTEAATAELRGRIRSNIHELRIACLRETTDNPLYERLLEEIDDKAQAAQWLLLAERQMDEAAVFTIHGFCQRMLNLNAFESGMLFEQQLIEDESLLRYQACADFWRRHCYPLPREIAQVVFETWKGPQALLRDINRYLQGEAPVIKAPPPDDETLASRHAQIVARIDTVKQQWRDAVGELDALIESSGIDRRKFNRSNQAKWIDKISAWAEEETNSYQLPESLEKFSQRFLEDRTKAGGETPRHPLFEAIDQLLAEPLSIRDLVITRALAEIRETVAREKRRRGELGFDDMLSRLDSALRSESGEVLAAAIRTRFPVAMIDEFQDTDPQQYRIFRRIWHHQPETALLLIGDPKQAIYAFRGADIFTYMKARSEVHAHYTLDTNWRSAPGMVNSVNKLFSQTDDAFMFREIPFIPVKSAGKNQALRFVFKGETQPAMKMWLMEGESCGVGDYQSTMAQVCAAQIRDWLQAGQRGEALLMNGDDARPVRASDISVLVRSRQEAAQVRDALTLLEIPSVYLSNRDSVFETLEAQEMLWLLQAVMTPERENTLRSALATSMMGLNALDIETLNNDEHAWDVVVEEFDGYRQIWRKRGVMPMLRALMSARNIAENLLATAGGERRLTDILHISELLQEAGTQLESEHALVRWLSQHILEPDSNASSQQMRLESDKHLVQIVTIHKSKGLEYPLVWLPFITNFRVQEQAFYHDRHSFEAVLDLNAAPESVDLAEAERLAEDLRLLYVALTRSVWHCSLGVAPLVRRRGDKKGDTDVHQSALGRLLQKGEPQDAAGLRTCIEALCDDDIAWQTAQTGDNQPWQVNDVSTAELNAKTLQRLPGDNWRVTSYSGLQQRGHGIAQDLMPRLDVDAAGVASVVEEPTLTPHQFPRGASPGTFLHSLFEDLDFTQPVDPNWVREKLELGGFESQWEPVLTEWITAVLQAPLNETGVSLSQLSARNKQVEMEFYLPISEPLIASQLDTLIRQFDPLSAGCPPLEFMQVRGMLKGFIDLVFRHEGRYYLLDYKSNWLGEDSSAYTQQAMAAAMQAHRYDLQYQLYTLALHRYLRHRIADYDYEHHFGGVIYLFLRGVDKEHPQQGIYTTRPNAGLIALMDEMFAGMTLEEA

[3] = inhibitors of SNCA 5'UTR-driven reporter translation, confirmation, H4 neuroglioma cells, luminescence (AID 1988); assay type: functional, cell-based
[4] = MDA-MB-231 cell growth inhibition, dose response, cytotoxicity control for RAD54 inhibitor project, CellTiter-Glo luminescence, cherry-pick (AID 651692); assay type: functional, cell-based

## CCCCCCCCCCOC(=O)Cn1c(COc2ccccc2)[n+](C)c2ccccc21
[1]
  EC50: 1.6 µM (active)

## COc1cc(-c2nnc(SCc3cc(=O)oc4cc(O)c(O)cc34)o2)cc(OC)c1OC
[2]
  IC50: > 119 µM (inactive)

## CCOC(=O)c1c(-c2ccc(-c3ccccc3)cc2)csc1NC(=O)CNCCN(C)C
[3]
  EC50: 9.16 µM (active)
[4]
  AC50: 18.4 µM (active)
